Assay results from ChEMBL document CHEMBL1146082, “Development of a structural model for NF-kappaB inhibition of sesquiterpene lactones using self-organizing neural networks” (J Med Chem, 2006).

Target: Transcription factor p65 (Homo sapiens) (UniProt Q04206)
Assay: Inhibition of NF-kappaB DNA binding by EMSA

Sequence of Transcription factor p65 (Homo sapiens) (Q04206 whole entry): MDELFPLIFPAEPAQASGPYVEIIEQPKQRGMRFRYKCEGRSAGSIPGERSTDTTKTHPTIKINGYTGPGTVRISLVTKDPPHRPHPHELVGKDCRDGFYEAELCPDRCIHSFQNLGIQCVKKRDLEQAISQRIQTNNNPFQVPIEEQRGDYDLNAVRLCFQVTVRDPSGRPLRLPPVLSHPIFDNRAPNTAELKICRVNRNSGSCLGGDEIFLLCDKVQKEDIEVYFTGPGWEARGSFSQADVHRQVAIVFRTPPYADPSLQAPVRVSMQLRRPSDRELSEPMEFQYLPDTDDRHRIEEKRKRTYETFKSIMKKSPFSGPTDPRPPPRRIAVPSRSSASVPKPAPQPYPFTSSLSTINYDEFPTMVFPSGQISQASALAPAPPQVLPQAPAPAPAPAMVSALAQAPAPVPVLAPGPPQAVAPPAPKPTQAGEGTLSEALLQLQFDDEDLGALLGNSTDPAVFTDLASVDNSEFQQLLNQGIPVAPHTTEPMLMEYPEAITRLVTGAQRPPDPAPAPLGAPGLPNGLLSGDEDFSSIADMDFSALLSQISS

Structure (SMILES)	IC100
C=C1C(=O)O[C@H]2C/C(CO)=C/CC/C(COC(=O)C(C)CO)=C/C[C@H]12 (stereo not given in full)	100 µM
C=C1C(=O)O[C@H]2/C=C(\C)CC/C=C(\C)[C@@H](OC(=O)/C(C)=C/C)[C@H](O)[C@@H]12	100 µM
C=C(C)C(=O)O[C@H]1/C(C=O)=C\CC/C(C)=C/[C@H]2OC(=O)C(=C)[C@@H]2[C@@H]1O	5 µM
C=C1C(=O)O[C@@H]2C[C@@]3(C)[C@H](O)CC[C@@](O)(COC(=O)C(C)C)[C@@H]3C[C@H]12	200 µM
C=C1C(=O)O[C@H]2[C@H]1[C@H](OC(=O)[C@@]1(C)O[C@H]1C)[C@@H](OC(C)=O)/C(C(=O)OC)=C\CC[C@@]1(C)O[C@H]21	10 µM
C=C1C(=O)O[C@@H]2/C=C(\C)CC/C=C(\C)CC[C@@H]12	50 µM
C=C(C)C(=O)O[C@H]1/C(C=O)=C\CC/C(COC(C)=O)=C/[C@H]2OC(=O)C(=C)[C@@H]2[C@@H]1O	5 µM
C=C1C(=O)O[C@H]2C/C(CO)=C/CC/C(COC(=O)C3(C)CO3)=C/C[C@H]12 (stereo not given in full)	50 µM
C=C(C)C(=O)O[C@@H]1/C=C(\C=O)[C@H](OC)CCC(=C)[C@H](O)[C@H]2OC(=O)C(=C)[C@@H]21	10 µM
C=C(CO)C(=O)OC/C1=C\C[C@@H]2C(=C)C(=O)O[C@H]2C/C(COC(C)=O)=C/CC1	50 µM
C=C1C(=O)O[C@@H]2/C=C(/CO)C3=CC(=O)[C@@](C)(C[C@H](OC(=O)/C(C)=C\C)[C@@H]12)O3	5 µM
C=C1C(=O)O[C@H]2/C=C(\C)CC/C=C(/C)C(=O)[C@H](OC(=O)[C@@]3(C)O[C@H]3C)[C@@H]12	50 µM
C=C1C(=O)C[C@H]2C(=C)C(=O)O[C@@H]2/C=C(\COC(=O)C(C)C)CC[C@@H]1OC	25 µM
C=C1C(=O)O[C@@H]2/C=C(\COC(=O)C(C)C)CC/C=C(\CO)C(=O)C[C@@H]12	12.5 µM
C=C1C(=O)O[C@@H]2[C@H]3C(C)=CC(=O)C3=C(C)C[C@@H](OC(=O)[C@]3(C)O[C@@H]3C)[C@@H]12	20 µM
C=C1C(=O)O[C@H]2[C@H]1[C@H](OC(=O)/C(C)=C\C)C[C@@]1(C)OC(=CC1=O)C(=C)[C@@H]2O	10 µM
C=C1C(=O)O[C@@H]2[C@H]3C(CO)=CC(=O)C3=C(C)CC[C@@H]12	50 µM
CC[C@@H](C)[C@@]1(O)O[C@H]2C[C@@]3(C)OC(=CC3=O)/C(COC(C)=O)=C\[C@H]3OC(=O)[C@@]1(C)C23 (stereo not given in full)	5 µM
C=C1C(=O)O[C@@H]2C[C@@H](C)[C@@H]3CCC(=O)[C@@]3(C)C[C@H]12	50 µM
C=C1C(=O)C=C2[C@H]1C[C@@H]1C(=C)C(=O)O[C@H]1C[C@@H]2C	5 µM
C=C1C(=O)O[C@@H]2[C@H]3C(C)=CC[C@H]3[C@](C)(O)C[C@H](O)[C@@H]12	100 µM
C=C1C(=O)O[C@H]2C/C(CO)=C/CC/C(COC(=O)C(C)CC)=C/C[C@H]12 (stereo not given in full)	50 µM
C=C1[C@@H]2[C@H]3OC(=O)C(=C)[C@@H]3CCC(=C)[C@@H]2C[C@@H]1OC(C)=O	100 µM
C=C1C(=O)O[C@@H]2/C=C(/C)[C@]3(O)O[C@](C)(C[C@@H](OC(=O)C(C)C)[C@@H]12)C(=O)[C@@H]3OC	200 µM
C=C1C(=O)O[C@H]2C[C@H](C)C3=CC(=O)[C@H](C)C3C[C@H]12 (stereo not given in full)	20 µM
C=C1C(=O)O[C@@H]2[C@H]1[C@@H](OC(=O)[C@]1(C)O[C@@H]1C)C(=O)[C@@]1(C)C=CC[C@@](C)(O)[C@H]21	10 µM
C=C(C)C(=O)O[C@H]1[C@H]2C(=C)C(=O)O[C@@H]2/C=C(\COC(C)=O)CC/C=C(/C=O)[C@@H]1O	5 µM
C=C1C(=O)O[C@@H]2/C=C(/C)C3=CC(=O)[C@@](C)(C[C@@H](OC(=O)/C(C)=C\C)[C@@H]12)O3	5 µM
C=C1C(=O)O[C@@H]2C[C@H](C)C3=CC(=O)[C@H](C)[C@@H]3C[C@H]12	50 µM
C=C1C(=O)O[C@@H]2C[C@@H](C)[C@@H]3C=CC(=O)[C@@]3(C)[C@@H](O)[C@H]12	10 µM
